Test results: ChEMBL document CHEMBL1201862, “PubChem BioAssay data set” (2004)
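A five-concentration, 48-hour dose response in 96-well plates underlies each endpoint, interpolated linearly between surrounding concentrations. GI50: concentration for 50% inhibition of growth.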 The source made the active and inactive calls. Rule as the data show it: active = GI50 up to about 1.1 µM and inactive = higher.

How the values were obtained:
Experiment in all cases: NCI-60 cell line screen, 48 h
ACHN = tested on: ACHN
DU-145 = tested on: DU-145
HCT-116 = tested on: HCT-116
HCT-15 = tested on: HCT-15
M14 = tested on: M14
MCF7 = tested on: MCF7
MDA-N = tested on: MDA-N
NCI-H23 = tested on: NCI-H23
OVCAR-8 = tested on: OVCAR-8
PC-3 = tested on: PC-3
RXF 393 = tested on: RXF 393
SF-268 = tested on: SF-268
SF-295 = tested on: SF-295
SF-539 = tested on: SF-539
SK-MEL-28 = tested on: SK-MEL-28
SK-MEL-5 = tested on: SK-MEL-5
SNB-75 = tested on: SNB-75
SR = tested on: SR
UACC-257 = tested on: UACC-257
HCC 2998 = tested on: HCC 2998

Row | Compound | GI50 (ACHN) | GI50 (DU-145) | GI50 (HCT-116) | GI50 (HCT-15) [µM] | GI50 (M14) | GI50 (MCF7) | GI50 (MDA-N) | GI50 (NCI-H23) | GI50 (OVCAR-8) | GI50 (PC-3) | GI50 (RXF 393) | GI50 (SF-268) | GI50 (SF-295) | GI50 (SF-539) | GI50 (SK-MEL-28) | GI50 (SK-MEL-5) | GI50 (SNB-75) | GI50 (SR) | GI50 (UACC-257) | GI50 (HCC 2998)
1 | CC(O)C(CO)NC(=O)C1CSSCC(NC(=O)C(N)Cc2ccccc2)C(=O)NC(Cc2ccccc2)C(=O)NC(Cc2c[nH]c3ccccc23)C(=O)NC(CCCCN)C(=O)NC(C(C)O)C(=O)N1 (centres undefined) | > 100 µM (inactive) | > 100 µM (inactive) | > 100 µM (inactive) | > 100 | > 100 µM (inactive) | > 100 µM (inactive) | > 100 µM (inactive) | > 100 µM (inactive) | > 100 µM (inactive) | > 100 µM (inactive) | > 100 µM (inactive) | > 100 µM (inactive) | > 100 µM (inactive) | > 100 µM (inactive) | > 100 µM (inactive) | > 100 µM (inactive) | > 100 µM (inactive) | > 100 µM (inactive) | > 100 µM (inactive) | –
2 | C[C@H](C(=O)N1C(=O)O[C@@H](c2ccccc2)[C@H]1C)[C@H](c1ccccc1)N(Cc1ccccc1)OC(=O)c1ccccc1 | 31.8 µM (inactive) | 66.1 µM (inactive) | 34.1 µM (inactive) | 29.6 | 24.3 µM (inactive) | 30.1 µM (inactive) | 48.9 µM (inactive) | 65.3 µM (inactive) | 37.5 µM (inactive) | 53.5 µM (inactive) | 73.8 µM (inactive) | 33.8 µM (inactive) | 21.6 µM (inactive) | 71.3 µM (inactive) | > 100 µM (inactive) | 21 µM (inactive) | 29.9 µM (inactive) | – | 20.9 µM (inactive) | 21.6 µM (inactive)
3 | COc1ccc(C(=O)CC(c2ccccc2)[C@H]2C(c3ccc(OC)cc3)=Nc3c(nc(SC)n(C)c3=O)NC2c2ccccc2)cc1 (some centres undefined) | – | > 100 µM (inactive) | 89.7 µM (inactive) | > 100 | > 100 µM (inactive) | > 100 µM (inactive) | > 100 µM (inactive) | > 100 µM (inactive) | – | > 100 µM (inactive) | > 100 µM (inactive) | > 100 µM (inactive) | > 100 µM (inactive) | > 100 µM (inactive) | > 100 µM (inactive) | 41.3 µM (inactive) | – | > 100 µM (inactive) | > 100 µM (inactive) | > 100 µM (inactive)
4 | O=C(O)CCC(c1ccccc1)(c1ccccc1)c1ccccc1 | 31 µM (inactive) | 17.2 µM (inactive) | – | 29.2 | 33 µM (inactive) | 17.7 µM (inactive) | 30.3 µM (inactive) | 34.4 µM (inactive) | 30.3 µM (inactive) | 33 µM (inactive) | – | 24.5 µM (inactive) | 50.7 µM (inactive) | 33.3 µM (inactive) | 50.5 µM (inactive) | 32 µM (inactive) | – | 31.6 µM (inactive) | 37 µM (inactive) | 32.4 µM (inactive)
5 | CC(=O)C(C(C)=O)[C@@H]1OC(C)(C)O[C@@H]1[C@H]1COC(C)(C)O1 | > 100 µM (inactive) | 51.8 µM (inactive) | 30.9 µM (inactive) | 41.5 | 47.4 µM (inactive) | 43.8 µM (inactive) | 23.3 µM (inactive) | 34 µM (inactive) | 40.6 µM (inactive) | 43.6 µM (inactive) | 51.8 µM (inactive) | 30.1 µM (inactive) | > 100 µM (inactive) | > 100 µM (inactive) | 60.3 µM (inactive) | 47.8 µM (inactive) | – | 38.8 µM (inactive) | 64 µM (inactive) | > 100 µM (inactive)
6 | Cc1[nH]n(-c2nc(O)c(-c3ccccc3)c(=O)[nH]2)c(=O)c1CCO | > 100 µM (inactive) | > 100 µM (inactive) | > 100 µM (inactive) | > 100 | > 100 µM (inactive) | > 100 µM (inactive) | > 100 µM (inactive) | > 100 µM (inactive) | > 100 µM (inactive) | > 100 µM (inactive) | > 100 µM (inactive) | > 100 µM (inactive) | > 100 µM (inactive) | > 100 µM (inactive) | > 100 µM (inactive) | > 100 µM (inactive) | 54.5 µM (inactive) | > 100 µM (inactive) | > 100 µM (inactive) | –
7 | C=C(C)[C@@H]1CC[C@]2(CO)CC[C@]3(C)[C@H](CC[C@@H]4[C@@]5(C)CC[C@H](O)C(C)(C)[C@@H]5CC[C@]43C)[C@@H]12 [BETULIN] | 11.1 µM (inactive) | 84.3 µM (inactive) | 30.8 µM (inactive) | 42.6 | 51.1 µM (inactive) | 19.9 µM (inactive) | 45 µM (inactive) | 94.8 µM (inactive) | 12.5 µM (inactive) | 30.2 µM (inactive) | 10.3 µM (inactive) | 25.1 µM (inactive) | 14 µM (inactive) | 11.7 µM (inactive) | 33.1 µM (inactive) | 19.7 µM (inactive) | 12.7 µM (inactive) | 43 µM (inactive) | 23.3 µM (inactive) | –
